One test deals with Bacillus subtilis. As to the kind of experiment: Antibacterial activity against Bacillus subtilis KCTC 1021 after 18 hrs by serial dilution technique. As to conditions: KCTC 1021, 18 h. The class given is functional.
Another test has as its system Staphylococcus aureus. Put plainly: Antibacterial activity against Staphylococcus aureus KCTC 1916 after 18 hrs by serial dilution technique. Format: functional. As to conditions: KCTC 1916, 18 h.
A further test has as its system Escherichia coli. As to the kind of experiment: Antibacterial activity against Escherichia coli KCTC 1923 after 18 hrs by serial dilution technique. Format: functional. As to conditions: KCTC 1923, 18 h.
For the next test, the system named is Pseudomonas aeruginosa. Put plainly: Antibacterial activity against Pseudomonas aeruginosa KCTC 2592 after 18 hrs by serial dilution technique. Format: functional. As to conditions: KCTC 2592, 18 h.
In another test the test system is ACHN. As to the kind of experiment: Cytotoxicity against human ACHN at 10 ug/ml. Format: functional, cell-based.
The next test deals with HCT-15. As to the kind of experiment: Cytotoxicity against human HCT15 at 10 ug/ml. Format: functional, cell-based.
In the next test the test system is MDA-MB-231. As to the kind of experiment: Cytotoxicity against human MDA-MB-231 at 10 ug/ml. Format: functional, cell-based.
Another test has as its system NCI-H23. Put plainly: Cytotoxicity against human NCI-H23 at 10 ug/ml. Format: functional, cell-based.
The next test deals with NUGC-3. Put plainly: Cytotoxicity against human NUGC3 at 10 ug/ml. The class given is functional, cell-based.
The test system of the next test is PC-3. As to the kind of experiment: Cytotoxicity against human PC3 at 10 ug/ml. Format: functional, cell-based.

In brackets after ≈: the same amount, converted by molar mass. Activity calls are given as the source filed them. The rule behind the calls is not given here.

As for `C[C@H]1CCC/C=C\C=C\[C@H](O)C[C@@H](O)C/C=C\C=C\[C@@H](OC(=O)CCC(=O)O[C@H]2O[C@@H](CO)[C@H](O)[C@@H](O)[C@@H]2O)C/C=C/C=C\C(=O)O1` [MACROLACTIN W], the MIC with Bacillus subtilis, with Staphylococcus aureus, in the test on Escherichia coli and in the test with Pseudomonas aeruginosa was 64 µg/mL (≈ 96.3 µM) each time. Further, the result with ACHN, in the test with HCT-15, in the test on MDA-MB-231, in the test with NCI-H23, with NUGC-3 and with PC-3 was inactive.

Source of the values: ChEMBL document CHEMBL1777743, “Macrolactin W, a new antibacterial macrolide from a marine Bacillus sp” (2011).
